Here are results for 19 compounds from patent US9949980B2, “Drugs to prevent HPV infection” (Wisconsin Alumni Research Foundation, priority 2008, dated 2018).

Structures can show the parent of a compound that is named as a salt. Where two headings read alike, the source gives them in different places.

One data set concerns HPV16 pseudovirus. Nature of the data set: Luciferase assay: HPV16 pseudovirus with renilla luciferase reporter (HPV16wpA-RL). To be noted: renilla luciferase reporter behind HPV16 promoter. A general note: In a reporter assay the amount or activity of a reporter protein is the signal.
For a further data set, the system named is HPV16 pseudoviruses. Nature of the data set: microbe, parasite or virus in culture. Format: cell-based. The following applies: Human papillomavirus 16, HEK-293T, 48 h. The method, boiled down:
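Viability was read by CellTiter Glo luminescence on the same wells used for the SEAP infection read-out, after 48 hrs further incubation.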

The next data set can be described thus: in vitro. The following applies: human.
[1] abbreviates: read-out: Infectivity (SEAP Activity), 3 μM HTS standard concentration, 293T cells, 48 hrs.
Where [2] appears, read: read-out: Infectivity vs. viability, 3 μM HTS standard concentration, ratio infectivity/viability.
[3] abbreviates: read-out: Primary HTS SEAP vs Viability, Table 2, first pair of columns (c2).
Where [4] appears, read: read-out: Primary HTS SEAP vs Viability, Table 2, second pair of columns (c4).
Setting [5] is: Primary HTS Viability % Average.

For orientation: viability means a read-out of living cells in per cent, often relative to untreated cells.

With `CCOC(=O)CCc1c(C)nc2c(C)c(-c3ccccc3)nn2c1O` [Compound 1, ethyl 3-(7-hydroxy-3,5-dimethyl-2-phenylpyrazolo[1,5-a]pyrimidin-6-yl)propanoate], the “Luciferase assay RL % Average” value in the data set with HPV16 pseudovirus was 64.85%. Moreover, the activity at 3 µM worked out at 22.9% in the data set with HPV16 pseudoviruses (setting [1]), 24.5% in the data set with HPV16 pseudoviruses (setting [2]), 13.1% in the data set with HPV16 pseudoviruses (setting [3]) and 32.6% in the data set on HPV16 pseudoviruses (setting [4]). Also, the results for the viability at 52 h, 3 μM in “in vitro” (setting [5]) and in “in vitro” (Viability (CelTiter Glow)) were 85% and 93.4%, respectively.

As for `Cc1cc(O)n2c(nc3ccccc32)c1C(=O)O` [Compound 2, 1-hydroxy-3-methylpyrido[1,2-a]benzimidazole-4-carboxylic acid], the “Luciferase assay RL % Average” value in the data set on HPV16 pseudovirus was 75.09%. The activity at 3 µM with HPV16 pseudoviruses (setting [1]) was found to be 19.7%; in the data set on HPV16 pseudoviruses (setting [2]), 19.6%; in the data set with HPV16 pseudoviruses (setting [3]) it was 13.5%; in the data set with HPV16 pseudoviruses (setting [4]), 25.9%. Besides, in the data set “in vitro” (Viability (CelTiter Glow)), the viability at 52 h, 3 μM amounted to 101%.

For the compound `Cc1nc2ccccn2c1C(=O)NC(C)c1ccccc1` (stereo not shown) [Compound 3, 2-methyl-N-(1-phenylethyl)imidazo[1,2-a]pyridine-3-carboxamide], the “Luciferase assay RL % Average” value in the data set with HPV16 pseudovirus was found to be 71.67%. Further, the activity at 3 µM in the data set on HPV16 pseudoviruses (setting [1]) is 20.8%; in the data set on HPV16 pseudoviruses (setting [2]), 20.3%; with HPV16 pseudoviruses (setting [3]), 18.7%; in the data set with HPV16 pseudoviruses (setting [4]) it was 23%. In addition, the results for the viability at 52 h, 3 μM in “in vitro” (setting [5]) and in “in vitro” (Viability (CelTiter Glow)) were 105% and 103%, respectively.

Turning to `Cc1ccccc1C(=O)N1CC(C)CC(C)C1` (stereo not shown) [Compound 5, 3,5-dimethyl-1-(2-methylbenzoyl)piperidine], the “Luciferase assay RL % Average” value with HPV16 pseudovirus is recorded as 102.39%. For the same compound, the activity at 3 µM came out at 22.9% in the data set with HPV16 pseudoviruses (setting [1]), 21.2% with HPV16 pseudoviruses (setting [2]), 29.5% in the data set with HPV16 pseudoviruses (setting [3]) and 16.2% in the data set on HPV16 pseudoviruses (setting [4]). Further, the values for the viability at 52 h, 3 μM in “in vitro” (setting [5]) and in the data set “in vitro” (Viability (CelTiter Glow)) were 102% and 108%, respectively.

As to `CCN1C(=O)c2cccc3c(NC(=O)c4ccc(S(=O)(=O)N(C)C)cc4)ccc1c23` [Compound 6, 4-[(dimethylamino)sulfonyl]-N-(1-ethyl-2-oxo-1,2-dihydrobenzo[cd]indol-6-yl)benzamide], the “Luciferase assay RL % Average” value in the data set on HPV16 pseudovirus worked out at 71.67%. The activity at 3 µM in the data set with HPV16 pseudoviruses (setting [1]) stood at 26.8%; with HPV16 pseudoviruses (setting [2]) it was 26.6%; in the data set with HPV16 pseudoviruses (setting [3]) it was 24.4%; with HPV16 pseudoviruses (setting [4]), 29.3%. Further, the viability at 52 h, 3 μM in the data set “in vitro” (Viability (CelTiter Glow)) was 101%.

With `Cc1ccccc1OCCc1c(C)n[nH]c1C` [Compound 7, 3,5-dimethyl-4-[2-(2-methylphenoxy)ethyl]-1H-pyrazole], the “Luciferase assay RL % Average” value in the data set on HPV16 pseudovirus came to 68.26%. In addition, the activity at 3 µM was determined as 36.9% with HPV16 pseudoviruses (setting [1]), 39.7% with HPV16 pseudoviruses (setting [2]), 32% in the data set with HPV16 pseudoviruses (setting [3]) and 41.8% in the data set on HPV16 pseudoviruses (setting [4]). The viability at 52 h, 3 μM in the data set “in vitro” (Viability (CelTiter Glow)) amounted to 92.9%.

On to `O=C(N(c1cccc(C(F)(F)F)c1)C1C=CS(=O)(=O)C1)C(F)(F)F` (stereo not shown) [Compound 8, N-(1,1-dioxido-2,3-dihydro-3-thienyl)-2,2,2-trifluoro-N-[3-(trifluoromethyl)phenyl]acetamide], for which the “Luciferase assay RL % Average” value in the data set on HPV16 pseudovirus is given as 177.47%. Besides, the activity at 3 µM stood at 27.7% in the data set with HPV16 pseudoviruses (setting [1]), 29.4% in the data set on HPV16 pseudoviruses (setting [2]), 37.3% with HPV16 pseudoviruses (setting [3]) and 18.1% in the data set on HPV16 pseudoviruses (setting [4]). Besides, the viability at 52 h, 3 μM in the data set “in vitro” (setting [5]) was 96.4%; in the data set “in vitro” (Viability (CelTiter Glow)), 94.4%.

Take `CN1C(=O)C(c2c[nH]c3ccccc23)(c2c[nH]c3ccccc23)c2ccccc21` [Compound 10, 1′-methyl-1H,1″H-3,3′:3′,3″-terindol-2′(1′H)-one]: the “Luciferase assay RL % Average” value with HPV16 pseudovirus worked out at 30.72%. The activity at 3 µM with HPV16 pseudoviruses (setting [1]) worked out at 38.8%; with HPV16 pseudoviruses (setting [2]), 37%; in the data set on HPV16 pseudoviruses (setting [3]), 34.4%; in the data set on HPV16 pseudoviruses (setting [4]) it was 43.2%. Besides, the viability at 52 h, 3 μM in “in vitro” (Viability (CelTiter Glow)) came to 105%.

For `O=C1NC(=S)SC1=Cc1ccc(Oc2ccc([N+](=O)[O-])cn2)cc1` [Compound 12, 5-{4-[(5-nitro-2-pyridinyl)oxy]benzylidene)-2-thioxo-1,3-thiazolidin-4-one], the “Luciferase assay RL % Average” value in the data set on HPV16 pseudovirus amounted to 105.80%. In addition, the activity at 3 µM worked out at 28.3% in the data set on HPV16 pseudoviruses (setting [1]), 21.5% in the data set with HPV16 pseudoviruses (setting [2]), 39.4% with HPV16 pseudoviruses (setting [3]) and 17.2% in the data set with HPV16 pseudoviruses (setting [4]). Besides, in “in vitro” (Viability (CelTiter Glow)), the viability at 52 h, 3 μM was 132%.

For the compound `O=S1(=O)C=CC(Nc2cccc(C(F)(F)F)c2)C1` (stereo not shown) [Compound 16, (1,1-dioxido-2,3-dihydro-3-thienyl)[3-(trifluoromethyl)phenyl]amine], the “Luciferase assay RL % Average” value in the data set with HPV16 pseudovirus is listed as 146.76%. The activity at 3 µM in the data set on HPV16 pseudoviruses (setting [1]) is 28.4%; in the data set with HPV16 pseudoviruses (setting [2]), 30.6%; in the data set on HPV16 pseudoviruses (setting [3]), 36.1%; with HPV16 pseudoviruses (setting [4]) it was 20.6%. Moreover, the viability at 52 h, 3 μM in “in vitro” (setting [5]) turned out to be 98.2%; in “in vitro” (Viability (CelTiter Glow)), 92.9%.

As for `COc1cccc(NC(=O)c2ccc(C)c([N+](=O)[O-])c2)c1` [Compound 17, N-(3-methoxyphenyl)-4-methyl-3-nitrobenzamide], the “Luciferase assay RL % Average” value in the data set with HPV16 pseudovirus was determined as 92.15%. In addition, the activity at 3 µM in the data set on HPV16 pseudoviruses (setting [1]) stood at 43%; in the data set with HPV16 pseudoviruses (setting [2]), 49.6%; in the data set on HPV16 pseudoviruses (setting [3]), 32.9%; in the data set with HPV16 pseudoviruses (setting [4]), 53.2%. Further, the viability at 52 h, 3 μM in the data set “in vitro” (Viability (CelTiter Glow)) is 86.8%.

Turning to `CC(O)c1cccc(NC(=O)c2cc3n(n2)C(C(F)(F)F)CC(c2ccc(F)cc2)N3)c1` (stereo not shown) [Compound 19, 5-(4-fluorophenyl)-N-[3-(1-hydroxyethyl)phenyl]-7-(trifluoromethyl)-4,5,6,7-tetrahydropyrazolo[1,5-a]pyrimidine-2-carboxamide], the “Luciferase assay RL % Average” value in the data set with HPV16 pseudovirus worked out at 88.74%. Also, the activity at 3 µM amounted to 40.8% in the data set with HPV16 pseudoviruses (setting [1]), 37.9% with HPV16 pseudoviruses (setting [2]), 50% in the data set on HPV16 pseudoviruses (setting [3]) and 31.5% in the data set on HPV16 pseudoviruses (setting [4]). For the same compound, the values for the viability at 52 h, 3 μM in the data set “in vitro” (setting [5]) and in the data set “in vitro” (Viability (CelTiter Glow)) were 116% and 107%, respectively.

In the case of `Cc1cccc(NC(=O)Nc2ccc(C(C)(C)C)cc2)n1` [Compound 21, 1-(4-tert-butylphenyl)-3-(6-methylpyridin-2-yl)urea], in the data set with HPV16 pseudovirus, the “Luciferase assay RL % Average” value came out at 109.22%. The activity at 3 µM in the data set on HPV16 pseudoviruses (setting [1]) stood at 43.8%; in the data set on HPV16 pseudoviruses (setting [2]), 47.2%; in the data set on HPV16 pseudoviruses (setting [3]) it was 34.2%; with HPV16 pseudoviruses (setting [4]), 53.5%. Also, the viability at 52 h, 3 μM in the data set “in vitro” (setting [5]) and in the data set “in vitro” (Viability (CelTiter Glow)) was 92.8% throughout.

`O=C(CCSc1ccc(C(F)(F)F)cc1)c1ccco1` [MWP 01152, 1-furan-2-yl-3-[4-(trifluoromethyl)phenyl]sulfanylpropan-1-one]: the figures for the activity at 3 µM with HPV16 pseudoviruses (setting [1]) and in the data set on HPV16 pseudoviruses (setting [2]) were 57.8% and 56.1%, respectively. In the data set “in vitro” (Viability (CelTiter Glow)), the viability at 52 h, 3 μM came out at 103%.

For the compound `CC(=O)Oc1ccc(OC(C)=O)c2c1C1C=CC2CC1` [NRB 00571, 6-(acetyloxy)tricyclo[6.2.2.0~2,7~]dodeca-2(7),3,5,9-tetraen-3-yl acetate], the activity at 3 µM with HPV16 pseudoviruses (setting [1]) amounted to 49.3%; in the data set on HPV16 pseudoviruses (setting [2]) it was 45.5%. Also, in the data set “in vitro” (Viability (CelTiter Glow)), the viability at 52 h, 3 μM stood at 108%.

Consider `CCNS(=O)(=O)c1ccc(-c2oc3cc(S(=O)(=O)NCC)ccc3c2Cl)cc1` [NRB 00942, 3-chloro-N-ethyl-2-[4-(ethylsulfamoyl)phenyl]-1-benzofuran-6-sulfonamide], for which the activity at 3 µM in the data set with HPV16 pseudoviruses (setting [1]) stood at 37.7%; in the data set on HPV16 pseudoviruses (setting [2]), 37.8%. The viability at 52 h, 3 μM in the data set “in vitro” (Viability (CelTiter Glow)) was determined as 99.7%.

On to `O=C1C(=Cc2ccccc2)CCCC1CN1CCOCC1` (stereo not shown) [NRB 01540, 2-benzylidene-6-(morpholinomethyl)cyclohexan-1-one hydrochloride], for which the activity at 3 µM in the data set on HPV16 pseudoviruses (setting [1]) was 50.5%; in the data set on HPV16 pseudoviruses (setting [2]) it was 49.9%. Further, the viability at 52 h, 3 μM in “in vitro” (Viability (CelTiter Glow)) was 101%.

Take `Oc1ccccc1C=NNc1nc2c(Cl)cc(Cl)cc2s1` [RF 02710, 2-hydroxybenzaldehyde N-(4,6-dichloro-1,3-benzothiazol-2-yl)hydrazone]: the values for the activity at 3 µM in the data set with HPV16 pseudoviruses (setting [1]) and with HPV16 pseudoviruses (setting [2]) were 34.6% and 36.4%, respectively. In addition, in “in vitro” (Viability (CelTiter Glow)), the viability at 52 h, 3 μM was 94.9%.

`ON=Cc1ccc(Cl)s1` [SEW 06085, 5-chlorothiophene-2-carbaldehyde oxime]: the values for the activity at 3 µM with HPV16 pseudoviruses (setting [1]) and in the data set with HPV16 pseudoviruses (setting [2]) were 54.9% and 53.2%, respectively. In addition, the viability at 52 h, 3 μM in the data set “in vitro” (Viability (CelTiter Glow)) was found to be 103%.
